The record followed here is article PMC5218480 (PLoS ONE, 2017).

This assay has as its system MV-4-11 cells. Kind of assay: Gene expression microarray analysis (Affymetrix PrimeView) and GSEA. It is filed as cell-based, human. On the set-up: RFU PODN (11730768_x_at) / Fold change /veh PODN (11730768_x_at) / RFU LINC00158 (11744669_a_at) / Fold change /veh LINC00158 (11744669_a_at) / RFU DUSP10 (11751237_a_at) / Fold change /veh DUSP10 (11751237_a_at) / RFU ID3 (11757404_x_at) / Fold change /veh ID3 (11757404_x_at) / RFU PLEKHG5 (11737974_s_at) / Fold change /veh PLEKHG5 (11737974_s_at) / RFU LRRC4B (11730491_at) / Fold change /veh LRRC4B (11730491_at) / RFU GIMAP4 (11747438_a_at) / Fold change /veh GIMAP4 (11747438_a_at) / RFU KRT8 (11758183_x_at) / Fold change /veh KRT8 (11758183_x_at) / RFU CNN1 (11734310_a_at) / Fold change /veh CNN1 (11734310_a_at) / RFU VPS37D (11726825_at) / Fold change /veh VPS37D (11726825_at) / RFU C10orf10 (11716522_x_at) / Fold change /veh C10orf10 (11716522_x_at) / RFU KIR2DL2 /// KIR2DL4 /// KIR2DL5A /// KIR2DL5B /// KIR2DS1 /// KIR2DS2 /// KIR2DS3 /// KIR2DS4 /// KIR3DL3 /// KIR3DL3 /// KIR3DS1 (11738374_at) / Fold change /veh KIR2DL2 /// KIR2DL4 /// KIR2DL5A /// KIR2DL5B /// KIR2DS1 /// KIR2DS2 /// KIR2DS3 /// KIR2DS4 /// KIR3DL3 /// KIR3DL3 /// KIR3DS1 (11738374_at) / RFU C1QL1 (11718748_at) / Fold change /veh C1QL1 (11718748_at) / RFU TMPRSS4 (11747572_a_at) / Fold change /veh TMPRSS4 (11747572_a_at) / RFU HAMP (11756126_x_at) / Fold change /veh HAMP (11756126_x_at) / RFU RNFT2 (11725882_a_at) / Fold change /veh RNFT2 (11725882_a_at) / RFU NR4A2 (11747474_a_at) / Fold change /veh NR4A2 (11747474_a_at) / RFU ABCC12 (11746883_a_at) / Fold change /veh ABCC12 (11746883_a_at) / RFU TMEM136 (11760407_x_at) / Fold change /veh TMEM136 (11760407_x_at) / RFU CLDN22 /// WWC2 (11732394_at) / Fold change /veh CLDN22 /// WWC2 (11732394_at) / RFU HLA-DPB1 (11760878_x_at) / Fold change /veh HLA-DPB1 (11760878_x_at) / RFU SPINT1 (11716480_a_at) / Fold change /veh SPINT1 (11716480_a_at) / RFU GAP43 (11754022_s_at) / Fold change /veh GAP43 (11754022_s_at) / RFU A4GNT (11735810_at) / Fold change /veh A4GNT (11735810_at) / RFU PRB3 (11715151_x_at) / Fold change /veh PRB3 (11715151_x_at) / RFU TUBB4B (11761932_at) / Fold change /veh TUBB4B (11761932_at) / RFU CAPN14 (11732068_a_at) / Fold change /veh CAPN14 (11732068_a_at) / RFU TMCC2 (11721928_a_at) / Fold change /veh TMCC2 (11721928_a_at) / RFU IRGQ (11745062_a_at) / Fold change /veh IRGQ (11745062_a_at) / RFU FAM174B (11720279_a_at) / Fold change /veh FAM174B (11720279_a_at) / RFU TMPRSS4 (11748680_a_at) / Fold change /veh TMPRSS4 (11748680_a_at) / RFU FAM212B (11763350_a_at) / Fold change /veh FAM212B (11763350_a_at) / RFU PLEKHG5 (11743358_a_at) / Fold change /veh PLEKHG5 (11743358_a_at) / RFU ZSCAN30 (11745921_a_at) / Fold change /veh ZSCAN30 (11745921_a_at) / RFU CMKLR1 (11741424_a_at) / Fold change /veh CMKLR1 (11741424_a_at) / RFU LOC101060620 /// MAPK8IP1 (11723275_at) / Fold change /veh LOC101060620 /// MAPK8IP1 (11723275_at) / RFU SPTSSB (11747773_x_at) / Fold change /veh SPTSSB (11747773_x_at) / RFU PRSS12 (11739890_at) / Fold change /veh PRSS12 (11739890_at) / RFU BIN1 (11741810_x_at) / Fold change /veh BIN1 (11741810_x_at) / RFU WNT11 (11732464_a_at) / Fold change /veh WNT11 (11732464_a_at) / RFU C10orf10 (11716521_a_at) / Fold change /veh C10orf10 (11716521_a_at) / RFU C5orf56 (11738089_at) / Fold change /veh C5orf56 (11738089_at) / RFU CYB561 (11721691_x_at) / Fold change /veh CYB561 (11721691_x_at) / RFU ANKRD19P (11752326_a_at) / Fold change /veh ANKRD19P (11752326_a_at) / RFU OR2T12 /// OR2T33 /// OR2T8 (11738714_s_at) / Fold change /veh OR2T12 /// OR2T33 /// OR2T8 (11738714_s_at) / RFU VCAN (11748164_a_at) / Fold change /veh VCAN (11748164_a_at) / RFU JSRP1 (11732532_at) / Fold change /veh JSRP1 (11732532_at) / RFU KRTAP10-11 (11738290_x_at) / Fold change /veh KRTAP10-11 (11738290_x_at) / RFU MYO3A (11730013_a_at) / Fold change /veh MYO3A (11730013_a_at) / RFU EBF3 (11725865_a_at) / Fold change /veh EBF3 (11725865_a_at) / RFU CAMK2N1 (11719241_x_at) / Fold change /veh CAMK2N1 (11719241_x_at) / RFU C5orf56 (11738088_a_at) / Fold change /veh C5orf56 (11738088_a_at) / RFU OLFML3 (11715873_a_at) / Fold change /veh OLFML3 (11715873_a_at) / RFU LOC100653217 /// NTM (11731650_a_at) / Fold change /veh LOC100653217 /// NTM (11731650_a_at) / RFU MAPK11 (11762145_a_at) / Fold change /veh MAPK11 (11762145_a_at) / RFU FIZ1 (11724087_x_at) / Fold change /veh FIZ1 (11724087_x_at) / RFU OASL (11726364_x_at) / Fold change /veh OASL (11726364_x_at) / RFU SOX15 (11748057_x_at) / Fold change /veh SOX15 (11748057_x_at) / RFU CD79A (11719716_a_at) / Fold change /veh CD79A (11719716_a_at) / RFU HIST1H1D (11736915_at) / Fold change /veh HIST1H1D (11736915_at) / RFU CASKIN2 (11723855_a_at) / Fold change /veh CASKIN2 (11723855_a_at) / RFU LOC730098 (11760151_x_at) / Fold change /veh LOC730098 (11760151_x_at) / RFU OR4N2 (11742367_at) / Fold change /veh OR4N2 (11742367_at) / RFU PRRT2 (11749266_a_at) / Fold change /veh PRRT2 (11749266_a_at) / RFU SNX32 (11753110_a_at) / Fold change /veh SNX32 (11753110_a_at) / RFU CDHR5 (11726645_a_at) / Fold change /veh CDHR5 (11726645_a_at) / RFU RCAN1 (11760418_a_at) / Fold change /veh RCAN1 (11760418_a_at) / RFU FAM167A (11723789_a_at) / Fold change /veh FAM167A (11723789_a_at) / RFU FAM26E (11764081_at) / Fold change /veh FAM26E (11764081_at) / RFU ISYNA1 (11749810_s_at) / Fold change /veh ISYNA1 (11749810_s_at) / RFU ACY1 (11761880_at) / Fold change /veh ACY1 (11761880_at) / RFU 11764098_at / Fold change /veh 11764098_at / RFU SAMD14 (11745864_x_at) / Fold change /veh SAMD14 (11745864_x_at) / RFU NPB (11741838_a_at) / Fold change /veh NPB (11741838_a_at) / RFU TMPRSS6 (11731388_a_at) / Fold change /veh TMPRSS6 (11731388_a_at) / RFU KRTAP10-2 (11738614_at) / Fold change /veh KRTAP10-2 (11738614_at) / RFU ARHGAP8 /// PRR5-ARHGAP8 (11727945_x_at) / Fold change /veh ARHGAP8 /// PRR5-ARHGAP8 (11727945_x_at) / RFU KRTAP5-7 /// NADSYN1 (11734609_at) / Fold change /veh KRTAP5-7 /// NADSYN1 (11734609_at) / RFU RASL12 (11751679_a_at) / Fold change /veh RASL12 (11751679_a_at) / RFU CDKN2B (11736163_a_at) / Fold change /veh CDKN2B (11736163_a_at) / RFU PRF1 (11729649_at) / Fold change /veh PRF1 (11729649_at) / RFU, ZNF638 /// ZNF638-IT1 / Fold change vs veh, ZNF638 /// ZNF638-IT1 / RFU, PANK3 / Fold change vs veh, PANK3 / RFU, SH3YL1 / Fold change vs veh, SH3YL1 / RFU, ZEB2 / Fold change vs veh, ZEB2 / RFU, NRIP1 / Fold change vs veh, NRIP1 / RFU, PTTG1IP / Fold change vs veh, PTTG1IP / RFU, CAPN2 / Fold change vs veh, CAPN2 / RFU, MED14 / Fold change vs veh, MED14 / RFU, SNORA58 / Fold change vs veh, SNORA58 / RFU, C1orf63 / Fold change vs veh, C1orf63 / RFU, LRRFIP1 / Fold change vs veh, LRRFIP1 / RFU, NDUFAF7 / Fold change vs veh, NDUFAF7 / RFU, SLC12A2 / Fold change vs veh, SLC12A2 / RFU, IBTK / Fold change vs veh, IBTK / RFU, ESF1 / Fold change vs veh, ESF1 / Fold change vs veh, TMEM50B / RFU, TAOK1 / Fold change vs veh, TAOK1 / RFU, ACBD3 / Fold change vs veh, ACBD3 / RFU, TMA16 / Fold change vs veh, TMA16 / RFU, RWDD3 / Fold change vs veh, RWDD3 / RFU, BCAT1 / Fold change vs veh, BCAT1 / RFU, EDEM3 / Fold change vs veh, EDEM3 / RFU, TMEM33 / Fold change vs veh, TMEM33 / RFU, WDR75 / Fold change vs veh, WDR75 / RFU, AHCTF1 / Fold change vs veh, AHCTF1 / RFU, TFRC / Fold change vs veh, TFRC / RFU, ZDHHC17 / Fold change vs veh, ZDHHC17 / RFU, NOM1 / Fold change vs veh, NOM1 / RFU, ARL8B / Fold change vs veh, ARL8B / RFU, ZBTB11 / Fold change vs veh, ZBTB11 / RFU, TAMM41 / Fold change vs veh, TAMM41 / RFU, KIAA1704 /// LOC100996395 / Fold change vs veh, KIAA1704 /// LOC100996395 / RFU, ING1 / Fold change vs veh, ING1 / RFU, TRMT61B / Fold change vs veh, TRMT61B / RFU, FUBP3 / Fold change vs veh, FUBP3 / RFU, TP53 / Fold change vs veh, TP53 / RFU, TNKS2 / Fold change vs veh, TNKS2 / RFU, ZFP14 / Fold change vs veh, ZFP14 / RFU, ACTR2 / Fold change vs veh, ACTR2 / RFU, PPP3R1 / Fold change vs veh, PPP3R1 / RFU, PIK3R1 / Fold change vs veh, PIK3R1 / RFU, HNRNPA1 / Fold change vs veh, HNRNPA1 / RFU, RNF170 / Fold change vs veh, RNF170 / RFU, ZNF28 / Fold change vs veh, ZNF28 / RFU, RNGTT / Fold change vs veh, RNGTT / RFU, OGT / Fold change vs veh, OGT / RFU, BRD1 / Fold change vs veh, BRD1 / RFU, MARS / Fold change vs veh, MARS / RFU, ZNF655 / Fold change vs veh, ZNF655 / RFU, FAHD1 / Fold change vs veh, FAHD1 / RFU, BDP1 / Fold change vs veh, BDP1 / RFU, LRRCC1 / Fold change vs veh, LRRCC1 / RFU, ARID1A / Fold change vs veh, ARID1A / RFU, ZNF146 / Fold change vs veh, ZNF146 / RFU, ZNF330 / Fold change vs veh, ZNF330 / RFU, GPN3 / Fold change vs veh, GPN3 / RFU, C9orf123 / Fold change vs veh, C9orf123 / RFU, N4BP2L2 / Fold change vs veh, N4BP2L2 / RFU, ARFIP1 / Fold change vs veh, ARFIP1 / RFU, FAM179B / Fold change vs veh, FAM179B / RFU, BCL10 / Fold change vs veh, BCL10 / RFU, UHRF1BP1L / Fold change vs veh, UHRF1BP1L / RFU, BET1 / Fold change vs veh, BET1 / RFU, CNOT2 / Fold change vs veh, CNOT2 / RFU, ZNF268 / Fold change vs veh, ZNF268 / Fold change vs veh, ZNF507 / RFU, DGCR2 / Fold change vs veh, DGCR2 / RFU, WDSUB1 / Fold change vs veh, WDSUB1 / Fold change vs veh, HSP90B1 /// MIR3652 / RFU, ADSS / Fold change vs veh, ADSS / RFU, GK / Fold change vs veh, GK / RFU, ZNF148 / Fold change vs veh, ZNF148 / RFU, TAF9 / Fold change vs veh, TAF9 / RFU, SLC1A5 / Fold change vs veh, SLC1A5 / RFU, SLMO2 / Fold change vs veh, SLMO2 / RFU, ABCC4 / Fold change vs veh, ABCC4 / RFU, LOC101060439 /// RAP1B / Fold change vs veh, LOC101060439 /// RAP1B / RFU, RFX7 / Fold change vs veh, RFX7 / RFU, GTPBP10 / Fold change vs veh, GTPBP10 / RFU, CNEP1R1 / Fold change vs veh, CNEP1R1 / RFU, BIVM-ERCC5 /// ERCC5 / Fold change vs veh, BIVM-ERCC5 /// ERCC5 / RFU, ILF3 / Fold change vs veh, ILF3 / RFU 11762660_at / Fold change /veh 11762660_at / RFU VCAN (11757783_s_at) / Fold change /veh VCAN (11757783_s_at) / RFU DDX43 (11728927_at) / Fold change /veh DDX43 (11728927_at) / RFU KRT8 (11758188_x_at) / Fold change /veh KRT8 (11758188_x_at) / RFU NKD1 (11759106_at) / Fold change /veh NKD1 (11759106_at) / RFU SRD5A1 (11742802_a_at) / Fold change /veh SRD5A1 (11742802_a_at) / RFU TPSAB1 /// TPSB2 (11721975_s_at) / Fold change /veh TPSAB1 /// TPSB2 (11721975_s_at) / RFU GSTM3 (11746129_a_at) / Fold change /veh GSTM3 (11746129_a_at) / RFU IL23R (11737362_x_at) / Fold change /veh IL23R (11737362_x_at) / RFU TMEM51 (11727254_a_at) / Fold change /veh TMEM51 (11727254_a_at) / RFU PIWIL2 (11732686_x_at) / Fold change /veh PIWIL2 (11732686_x_at) / RFU ORM1 (11744905_x_at) / Fold change /veh ORM1 (11744905_x_at) / RFU CCDC152 (11743942_at) / Fold change /veh CCDC152 (11743942_at) / RFU ECM1 (11717891_a_at) / Fold change /veh ECM1 (11717891_a_at) / RFU IL23R (11748794_a_at) / Fold change /veh IL23R (11748794_a_at) / RFU TNFAIP8L3 (11732012_x_at) / Fold change /veh TNFAIP8L3 (11732012_x_at) / RFU MBOAT4 (11741988_at) / Fold change /veh MBOAT4 (11741988_at) / RFU 11764193_at / Fold change /veh 11764193_at / RFU TMEM53 (11763286_at) / Fold change /veh TMEM53 (11763286_at) / RFU MAGEB2 (11727129_at) / Fold change /veh MAGEB2 (11727129_at) / RFU TMEM200A (11744735_a_at) / Fold change /veh TMEM200A (11744735_a_at) / RFU CCDC152 (11751479_a_at) / Fold change /veh CCDC152 (11751479_a_at) / RFU FAM211A (11726209_a_at) / Fold change /veh FAM211A (11726209_a_at) / RFU RGS16 (11746705_a_at) / Fold change /veh RGS16 (11746705_a_at) / RFU VCAN (11755009_s_at) / Fold change /veh VCAN (11755009_s_at) / RFU RHOB (11743442_s_at) / Fold change /veh RHOB (11743442_s_at) / RFU RGS16 (11720943_a_at) / Fold change /veh RGS16 (11720943_a_at) / RFU RGS16 (11720944_at) / Fold change /veh RGS16 (11720944_at) / RFU, VPS4B / Fold change vs veh, VPS4B / RFU, CREB1 / Fold change vs veh, CREB1 / RFU, DNAJC13 / Fold change vs veh, DNAJC13 / RFU, GNAQ / Fold change vs veh, GNAQ / RFU, CDK5R1 / Fold change vs veh, CDK5R1 / RFU, ZRANB3 / Fold change vs veh, ZRANB3 / RFU, CUL4A / Fold change vs veh, CUL4A / RFU, CCNY / Fold change vs veh, CCNY / RFU, UFL1 / Fold change vs veh, UFL1 / RFU, COG3 / Fold change vs veh, COG3 / RFU, DIAPH2 / Fold change vs veh, DIAPH2 / RFU, SKA2 / Fold change vs veh, SKA2 / RFU, AFF3 / Fold change vs veh, AFF3 / RFU, LMF1 / Fold change vs veh, LMF1 / RFU, IPO11 / Fold change vs veh, IPO11 / RFU, DFFB / Fold change vs veh, DFFB / RFU, FOXP1 / Fold change vs veh, FOXP1 / RFU, CARD8 / Fold change vs veh, CARD8 / RFU, STRN3 / Fold change vs veh, STRN3 / RFU, ADK / Fold change vs veh, ADK / RFU, RASSF2 / Fold change vs veh, RASSF2 / RFU, WIPF1 / Fold change vs veh, WIPF1 / RFU, LARP1B / Fold change vs veh, LARP1B / RFU, RASA1 / Fold change vs veh, RASA1 / RFU, RB1 / Fold change vs veh, RB1 / RFU, PPFIA1 / Fold change vs veh, PPFIA1 / RFU, MAT2A / Fold change vs veh, MAT2A / RFU, CCT5 / Fold change vs veh, CCT5 / RFU, WDR92 / Fold change vs veh, WDR92 / RFU, CUX1 / Fold change vs veh, CUX1 / RFU, TTC7A / Fold change vs veh, TTC7A / RFU, TMEM135 / Fold change vs veh, TMEM135 / RFU, DEPTOR / Fold change vs veh, DEPTOR / RFU, CPM / Fold change vs veh, CPM / RFU, DNAJB6 / Fold change vs veh, DNAJB6 / RFU, CACNA2D3 / Fold change vs veh, CACNA2D3 / RFU, DTX4 / Fold change vs veh, DTX4 / RFU, TFCP2 / Fold change vs veh, TFCP2 / RFU, GMCL1 /// GMCL1P1 / Fold change vs veh, GMCL1 /// GMCL1P1 / RFU, AEBP2 / Fold change vs veh, AEBP2 / RFU, SNHG1 /// SNORD22 /// SNORD25 /// SNORD26 /// SNORD27 /// SNORD28 /// SNORD29 /// SNORD31 / Fold change vs veh, SNHG1 /// SNORD22 /// SNORD25 /// SNORD26 /// SNORD27 /// SNORD28 /// SNORD29 /// SNORD31 / Fold change (Aza/veh), C12orf56 (ProbeSet 11735607_a_at) / Fold change (ACY-1035/veh), C12orf56 (ProbeSet 11735607_a_at) / Fold change (Aza/veh), FGFR1OP (ProbeSet 11751329_s_at) / Fold change (ACY-1035/veh), FGFR1OP (ProbeSet 11751329_s_at) / Fold change (Aza/veh), VPS36 (ProbeSet 11739960_a_at) / Fold change (ACY-1035/veh), VPS36 (ProbeSet 11739960_a_at) / RFU SYPL1 (11715823_x_at) / Fold change /veh SYPL1 (11715823_x_at) / RFU IGFBP7 (11715501_s_at) / Fold change /veh IGFBP7 (11715501_s_at) / RFU REEP3 (11722064_at) / Fold change /veh REEP3 (11722064_at) / RFU IGLL1 (11728026_x_at) / Fold change /veh IGLL1 (11728026_x_at): dose or concentration left out as unconfirmed. To be noted: MV-4-11 cells, 48 hours.

Turning to `Nc1ncn([C@@H]2O[C@H](CO)[C@@H](O)[C@H]2O)c(=O)n1` [azacitidine], the “RFU TUBB4B (11761932_at)” value is on record as 18.89 RFU.
